Data from patent publication US12590066B2, “Fused-heterocyclyl-carbonohydrazonoyl dicyanide compounds and use thereof” (KOREA INSTITUTE OF SCIENCE AND TECHNOLOGY, priority 2020, dated 2026).

Legend:
CYP1A2 = biological target: T1, CYP1A2 (Homo sapiens, UniProt P05177); assay: Inhibitory effect on CYP coenzyme activity, human liver microsomes; assay type: in vitro ADME; settings: 10 μM compound, human liver microsomes 0.25 mg/mL, substrate phenacetin, 15 minutes
T1 construct: human liver microsomes (0.25 mg/mL); from tissue; host or cells: human liver microsomes
T1 sequence (P05177 1-516): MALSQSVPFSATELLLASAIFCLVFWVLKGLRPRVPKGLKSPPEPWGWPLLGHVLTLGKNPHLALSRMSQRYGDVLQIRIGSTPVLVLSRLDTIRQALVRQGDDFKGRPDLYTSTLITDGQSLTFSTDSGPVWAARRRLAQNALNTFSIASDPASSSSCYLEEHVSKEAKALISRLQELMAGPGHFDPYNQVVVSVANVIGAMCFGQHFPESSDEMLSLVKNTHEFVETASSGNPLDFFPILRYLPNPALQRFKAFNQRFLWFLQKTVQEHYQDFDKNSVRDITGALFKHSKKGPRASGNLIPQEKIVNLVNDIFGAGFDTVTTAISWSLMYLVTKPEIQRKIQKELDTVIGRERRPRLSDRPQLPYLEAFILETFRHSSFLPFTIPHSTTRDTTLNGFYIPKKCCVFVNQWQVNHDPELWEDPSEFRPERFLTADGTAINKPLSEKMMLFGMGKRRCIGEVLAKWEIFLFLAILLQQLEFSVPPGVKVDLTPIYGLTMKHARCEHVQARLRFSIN
Method in brief: (§1)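 Activity (% of vehicle control) from LC-MS/MS MRM quantitation of substrate metabolites. HLM 0.25 mg/mL, pH 7.4 phosphate, cocktail of phenacetin 50 μM, diclofenac 10 μM, S-mephenytoin 100 μM, dextromethorphan 5 μM, midazolam 2.5 μM; test compound 10 μM; 37 °C, 5 min preincubation plus 15 min with NADPH system.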

CYP2C9 = biological target: T2, CYP2C9 (Homo sapiens, UniProt P11712); assay: as above; assay type: in vitro ADME; settings: 10 μM compound, human liver microsomes 0.25 mg/mL, substrate diclofenac, 15 minutes
T2 construct: human liver microsomes (0.25 mg/mL); from tissue; host or cells: human liver microsomes
Method in brief: as §1

CYP3A4 = biological target: T3, CYP3A4 (Homo sapiens, UniProt P08684); assay: as above; assay type: in vitro ADME; settings: 10 μM compound, human liver microsomes 0.25 mg/mL, substrate midazolam, 15 minutes
T3 construct: human liver microsomes (0.25 mg/mL); from tissue; host or cells: human liver microsomes
Method in brief: as §1

CYP2C19 = biological target: T4, CYP2C19 (Homo sapiens, UniProt P33261); assay: as above; assay type: in vitro ADME; settings: 10 μM compound, human liver microsomes 0.25 mg/mL, substrate S-mephenytoin, 15 minutes
T4 construct: human liver microsomes (0.25 mg/mL); from tissue; host or cells: human liver microsomes
Method in brief: as §1

CYP2D6 = biological target: T5, CYP2D6 (Homo sapiens, UniProt P10635); assay: as above; assay type: in vitro ADME; settings: 10 μM compound, human liver microsomes 0.25 mg/mL, substrate dextromethorphan, 15 minutes
T5 construct: human liver microsomes (0.25 mg/mL); from tissue; host or cells: human liver microsomes
Method in brief: as §1

tau protein = biological target: T6, tau protein (Homo sapiens, UniProt P10636); assay: Tau-BiFC cell model, inhibition of Forskolin-induced tau protein aggregation; assay type: cell-based; settings: Forskolin 30 μM, 48 hours; for Tau BiFC in cells Response (% @10 μM): 10 μM compound, Forskolin-only group = 100% tau protein-aggregated state; for IC50: tau-BiFC cells
T6 construct: BiFC fluorescent-protein fragments (type and halves not specified); expressed in transfected cells
Method in brief: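 Tau-BiFC cells co-treated 48 h with 30 μM forskolin and compounds (1, 3, 10 μM screen; 0.01–30 μM dose-response). BiFC fluorescence normalized to forskolin-only (100% aggregation) minus untreated gives aggregation inhibition and IC50; viability as Hoechst-stained nuclei count relative to forskolin-only.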

T4 sequence (P33261 whole entry): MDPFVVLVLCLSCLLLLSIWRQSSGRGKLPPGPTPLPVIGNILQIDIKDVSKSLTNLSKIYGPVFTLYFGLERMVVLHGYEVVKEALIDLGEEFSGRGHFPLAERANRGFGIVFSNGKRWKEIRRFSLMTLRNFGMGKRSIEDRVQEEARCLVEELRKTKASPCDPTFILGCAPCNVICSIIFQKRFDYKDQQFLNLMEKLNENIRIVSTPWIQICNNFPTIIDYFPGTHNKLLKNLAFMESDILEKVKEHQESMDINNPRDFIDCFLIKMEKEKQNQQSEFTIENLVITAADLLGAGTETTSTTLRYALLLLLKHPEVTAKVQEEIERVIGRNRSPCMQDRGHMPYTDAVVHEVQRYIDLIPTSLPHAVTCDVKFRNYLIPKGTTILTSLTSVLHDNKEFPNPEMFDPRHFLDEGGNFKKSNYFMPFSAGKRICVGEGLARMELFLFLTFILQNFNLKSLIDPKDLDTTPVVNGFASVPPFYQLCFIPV
T6 sequence (P10636 1-441 isoform P10636-8): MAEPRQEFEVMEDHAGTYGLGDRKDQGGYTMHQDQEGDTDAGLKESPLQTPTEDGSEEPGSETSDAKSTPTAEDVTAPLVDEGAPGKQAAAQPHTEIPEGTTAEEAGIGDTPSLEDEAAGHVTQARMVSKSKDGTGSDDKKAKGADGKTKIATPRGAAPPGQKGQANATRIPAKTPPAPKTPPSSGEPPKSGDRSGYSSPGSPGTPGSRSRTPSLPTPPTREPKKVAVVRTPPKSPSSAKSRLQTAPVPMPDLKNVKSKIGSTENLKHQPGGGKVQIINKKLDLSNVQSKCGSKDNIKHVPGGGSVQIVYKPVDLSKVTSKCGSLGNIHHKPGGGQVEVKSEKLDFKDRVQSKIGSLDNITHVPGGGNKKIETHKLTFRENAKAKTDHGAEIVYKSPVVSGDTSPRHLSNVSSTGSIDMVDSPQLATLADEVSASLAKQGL
T5 sequence (P10635 whole entry): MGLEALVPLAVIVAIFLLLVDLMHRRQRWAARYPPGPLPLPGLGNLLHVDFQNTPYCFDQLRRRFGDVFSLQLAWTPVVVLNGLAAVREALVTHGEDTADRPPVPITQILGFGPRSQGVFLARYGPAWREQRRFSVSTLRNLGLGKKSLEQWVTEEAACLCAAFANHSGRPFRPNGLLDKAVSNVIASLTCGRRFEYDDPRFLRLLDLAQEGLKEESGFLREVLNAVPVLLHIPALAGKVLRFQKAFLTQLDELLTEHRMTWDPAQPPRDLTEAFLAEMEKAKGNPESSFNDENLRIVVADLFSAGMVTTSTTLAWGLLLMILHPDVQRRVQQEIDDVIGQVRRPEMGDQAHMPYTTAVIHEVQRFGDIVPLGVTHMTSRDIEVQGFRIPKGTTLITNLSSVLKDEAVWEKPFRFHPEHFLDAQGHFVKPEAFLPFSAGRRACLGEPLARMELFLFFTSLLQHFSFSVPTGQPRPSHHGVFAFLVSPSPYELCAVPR
T2 sequence (P11712 whole entry): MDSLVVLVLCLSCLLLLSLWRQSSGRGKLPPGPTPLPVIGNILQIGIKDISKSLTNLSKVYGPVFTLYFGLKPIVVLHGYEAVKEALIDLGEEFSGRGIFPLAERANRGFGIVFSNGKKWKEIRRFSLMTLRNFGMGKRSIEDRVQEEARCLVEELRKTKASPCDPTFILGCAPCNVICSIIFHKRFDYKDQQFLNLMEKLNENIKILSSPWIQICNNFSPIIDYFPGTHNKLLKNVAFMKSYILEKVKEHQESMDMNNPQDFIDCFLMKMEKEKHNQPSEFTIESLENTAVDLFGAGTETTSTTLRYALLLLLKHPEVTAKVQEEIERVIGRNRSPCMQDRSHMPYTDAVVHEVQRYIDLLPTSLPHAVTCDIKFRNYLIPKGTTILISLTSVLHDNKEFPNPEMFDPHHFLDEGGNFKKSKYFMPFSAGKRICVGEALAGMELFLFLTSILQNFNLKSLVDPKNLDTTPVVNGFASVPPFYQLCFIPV
T3 sequence (P08684 whole entry): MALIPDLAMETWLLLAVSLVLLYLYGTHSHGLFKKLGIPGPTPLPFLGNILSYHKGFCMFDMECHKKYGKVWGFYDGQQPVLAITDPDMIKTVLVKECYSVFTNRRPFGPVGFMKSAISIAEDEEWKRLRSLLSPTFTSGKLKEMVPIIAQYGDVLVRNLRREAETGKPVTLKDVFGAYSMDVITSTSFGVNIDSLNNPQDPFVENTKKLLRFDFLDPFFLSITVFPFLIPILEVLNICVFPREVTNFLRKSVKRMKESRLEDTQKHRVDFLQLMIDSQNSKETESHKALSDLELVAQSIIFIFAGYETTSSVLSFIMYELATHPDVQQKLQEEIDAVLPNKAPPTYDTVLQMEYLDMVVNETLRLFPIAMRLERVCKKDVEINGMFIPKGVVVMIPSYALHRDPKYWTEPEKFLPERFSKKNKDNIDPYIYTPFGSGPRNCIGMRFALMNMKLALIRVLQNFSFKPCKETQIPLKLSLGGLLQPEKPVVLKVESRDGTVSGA

Row | SMILES | CYP1A2 coenzyme activity (%) with respect to control group not treated (CYP1A2) [%] | CYP2C9 coenzyme activity (%) with respect to control group not treated (CYP2C9) [%] | CYP3A4 coenzyme activity (%) with respect to control group not treated (CYP3A4) [%] | CYP2C19 coenzyme activity (%) with respect to control group not treated (CYP2C19) [%] | CYP2D6 coenzyme activity (%) with respect to control group not treated (CYP2D6) [%] | Tau BiFC in cells Response (% @10 μM) (tau protein) [%] | IC50 (tau protein) [nM]
1 | N#CC(C#N)=NNc1ccc2c(c1)oc(=O)n2C(F)F [Compound 21, (3-(difluoromethyl)-2-oxo-2,3-dihydrobenzo[d]oxazol-6-yl)carbonohydrazonoyl dicyanide] | 79.6 | 64.4 | 90.4 | 83.7 | 89.1 | 0 | 600
2 | Cn1c(=O)sc2cc(NN=C(C#N)C#N)ccc21 [Compound 14, (3-methyl-2-oxo-2,3-dihydrobenzo[d]thiazol-6-yl)carbonohydrazonoyl dicyanide] | 81.6 | 19.5 | 91.2 | 68.8 | 85.6 | 0 | 60
3 | Cn1c(=O)n(C)c2ncc(NN=C(C#N)C#N)cc21 [Compound 12, (1,3-dimethyl-2-oxo-2,3-dihydro-1H-imidazo[4,5-b]pyridin-6-yl)carbonohydrazonoyl dicyanide] | 99.6 | 93.4 | >100 | 92.2 | >100 | 0 | 870
4 | CCn1c(=O)n(C(C)C)c2ncc(NN=C(C#N)C#N)cc21 [Compound 55, (1-ethyl-3-isopropyl-2-oxo-2,3-dihydro-1H-imidazo[4,5-b]pyridin-6-yl)carbonohydrazonoyl dicyanide] | 58.4 | 38.9 | 78 | 73.1 | 85.8 | −32 | 110
5 | Cn1ccc2c(NN=C(C#N)C#N)cccc2c1=O [Compound 5, (2-methyl-1-oxo-1,2-dihydroisoquinolin-5-yl)carbonohydrazonoyl dicyanide] | 70.7 | 29.1 | 88.6 | >100 | 93.1 | 0 | –
6 | CC(C)n1c(=O)sc2cc(NN=C(C#N)C#N)ccc21 [Compound 18, (3-isopropyl-2-oxo-2,3-dihydrobenzo[d]thiazol-6-yl)carbonohydrazonoyl dicyanide] | 81.4 | 7.5 | 78.3 | 63.2 | 88.1 | 0 | 40
7 | CC(C)n1c(=O)oc2cc(NN=C(C#N)C#N)ccc21 [Compound 20, (3-isopropyl-2-oxo-2,3-dihydrobenzo[d]oxazol-6-yl)carbonohydrazonoyl dicyanide] | 87.3 | 32.3 | 98.8 | 85.7 | 98.1 | 0 | 100
8 | N#CC(C#N)=NNc1ccc2[nH]c(=O)sc2c1 [Compound 13, (2-oxo-2,3-dihydrobenzo[d]thiazol-6-yl)carbonohydrazonoyl dicyanide] | 79 | 23.3 | 92.7 | 55.2 | 99.4 | 0.8 | 200
9 | Cn1c(=O)n(C(F)F)c2cc(NN=C(C#N)C#N)ccc21 [Compound 37, (3-(difluoromethyl)-1-methyl-2-oxo-2,3-dihydro-1H-benzo[d]imidazol-5-yl)carbonohydrazonoyl dicyanide] | 64.6 | 29.2 | 96.7 | 90.7 | >100 | −49 | 200
10 | Cn1c(=O)n(C)c2c(Cl)cc(NN=C(C#N)C#N)cc21 [Compound 11, (7-chloro-1,3-dimethyl-2-oxo-2,3-dihydro-1H-benzo[d]imidazol-5-yl)carbonohydrazonoyl dicyanide] | 73.7 | 45.8 | >100 | 88.4 | >100 | 0 | 100
